Here are results for six molecules from PMC6254802, “Development of a High-Throughput Assay for Screening of γ-Secretase Inhibitor with Endogenous Human, Mouse or Drosophila γ-Secretase” (Molecules, 2009).

In one assay the target is T1, human γ-secretase (Homo sapiens, UniProt P49768).
T1 construct: endogenously expressing human γ-secretase from HEK293T cell membrane; endogenous in cells; host or cells: HEK293T cells (membrane fraction, solubilised with 0.25% CHAPSO)
Kind of assay: Fluorogenic substrate assay with endogenous human γ-secretase from HEK293T cell membrane. Format: biochemical. The conditions noted are these: for IC50: 10 μg membrane protein, 6 μM substrate, 5 h, 37 °C, mean ± SEM; for maximal inhibition: human γ-secretase, relative to 1 μM L685,458 = 100%. The procedure: All procedures were carried out at 4 °C. […] Mouse cortex was homogenized with 15 stokes of pestle A in the same lysis buffer. The homogenates were centrifuged at 800 g for 10 min to remove nuclei and large debris. The supernatants were centrifuged at 25,000 g for 1 h at 4 °C and the membrane pellets were resuspended in reaction buffer containing 50 mM Tris-HCl (pH 6.8), 2 mM EDTA, 150 mM KCl and Complete^TM protease inhibitor cocktail.
For assay optimization, aliquots of membrane protein (5~30 μg) was added to each well of a 96-well plate with various concentrations of fluorogenic substrate (4~8 μM). Different concentrations of compounds were added and the final reaction system was adjusted to 100 μL/well with the reaction buffer. The plate was incubated at 37 °C in a humidified atmosphere for indicated time periods. Fluorescence was measured using a BIOTEK FLX800 microplate reader with the excitation wavelength at 355 nm and the emission wavelength at 440 nm. The activity of γ-secretase was presented as the relative fluorescent unit (RFU). For compound screening, 1 μM of L685,458 was used as a positive control, and 1% DMSO was used as negative control.
(§1) Data were analyzed with GraphPad Prism software (GraphPad, San Diego, CA, USA). Non-linear regression analyses were performed to generate dose-response curves and calculate IC50 values, and linear regression was used to analyze data reproducibility. Mean ± SEM was calculated automatically with this software. Z’ factor was calculated by the following equation: Z’ = 1 - (3SD++3SD-) / │Ave+ - Ave-│ in which SD+ is the standard deviation of positive control, SD-is the standard deviation of negative control, Ave+ is the mean value of the positive control, and Ave-is the mean value of the negative control.

The next assay addresses T2, drosophila γ-secretase (Drosophila melanogaster, UniProt O02194).
T2 construct: membrane containing drosophila or mouse γ-secretase was isolated from S2 cells or mouse cortex, respectively; host or cells: Drosophila Schneider 2 (S2) cells, membrane fraction
Kind of assay: Fluorogenic substrate assay with drosophila γ-secretase from S2 cell membrane. Format: biochemical.

The next assay has as its target mouse γ-secretase. The experiment in a line: Fluorogenic substrate assay with mouse γ-secretase from mouse cortex membrane. It is filed as biochemical. The conditions noted are these: mean ± SEM, n = 3. The procedure: All procedures were carried out at 4 °C. HEK 293T or S2 cells were washed with ice-cold PBS by centrifugation at 500 g for 5 min and the pellets were homogenized with a Dounce homogenizer (pestle B, 15 strokes) in lysis buffer contained 5 mM Tris-HCl (pH 7.4), 5 mM EDTA, 5 mM EGTA and Complete^TM protease inhibitor cocktail. Mouse cortex was homogenized with 15 stokes of pestle A in the same lysis buffer. The homogenates were centrifuged at 800 g for 10 min to remove nuclei and large debris. The supernatants were centrifuged at 25,000 g for 1 h at 4 °C and the membrane pellets were resuspended in reaction buffer containing 50 mM Tris-HCl (pH 6.8), 2 mM EDTA, 150 mM KCl and Complete^TM protease inhibitor cocktail. After measuring the protein concentration, the membranes were diluted to 1 mg/ml in 50 mM Tris-HCl, pH 6.8, 2 mM EDTA, 150 mM KCl, 0.25% CHAPSO.
For assay optimization, aliquots of membrane protein (5~30 μg) was added to each well of a 96-well plate with various concentrations of fluorogenic substrate (4~8 μM). Different concentrations of compounds were added and the final reaction system was adjusted to 100 μL/well with the reaction buffer. The plate was incubated at 37 °C in a humidified atmosphere for indicated time periods. Fluorescence was measured using a BIOTEK FLX800 microplate reader with the excitation wavelength at 355 nm and the emission wavelength at 440 nm. The activity of γ-secretase was presented as the relative fluorescent unit (RFU). For compound screening, 1 μM of L685,458 was used as a positive control, and 1% DMSO was used as negative control. The inhibition rate of each compound was calculated with the following equation: InhibitionCompound % = (Average Value1%DMSO-Average Value Compound)/(Average Value1%DMSO-Average ValueL685,458) × 100%. So the inhibition rate of 1 μM L685,458 is 100% and that of 1% DMSO is 0. The samples showing more than 60% inhibition were considered as “hits” in the screening.
as §1

A further assay deals with γ-secretase (Aβ). The conditions noted are these: In vivo γ-secretase assay; read-out: Reported IC50 (Aβ); cited from earlier work.
Assay [1] addresses γ-secretase. Details: method as in PMID 16569643. The conditions noted are these: in vitro γ-secretase assay; read-out: Reported IC50; cited from earlier work.
For assay [2], the target named is γ-secretase (Aβ40, Aβ42). Also noted: method as in PMID 15341524. The conditions noted are these: Aβ ELISA assay, cited from earlier work. For orientation: ELISA stands for enzyme-linked immunosorbent assay.
Assay [3] deals with γ-secretase (Aβ40, Aβ42). Details: method as in PMID 11574530. The conditions noted are these: immunoblotting assay, cited from earlier work. Background: A western blot detects proteins with antibodies after separation by electrophoresis.
The next assay relates to Sup-T1 NICT. Also noted: method as in PMID 15319485. The conditions noted are these: Sup-T1 NICT assay; read-out: Reported IC50; cited from earlier work.
The next assay relates to Aβ1-42. Also noted: method as in PMID 10882355. The conditions noted are these: read-out: Reported IC50 (Aβ1-42); cited from earlier work.
Assay [4] concerns the target γ-secretase. Details: method as in PMID 10913280. The conditions noted are these: HTRF assay; read-out: Reported IC50; cited from earlier work.
[5] abbreviates: S2 cell membrane, mean ± SEM, n = 3, read-out: drosophila γ-secretase IC50.

Each structure is given as a SMILES string. Read-outs that look alike come from different tables or passages of the source.

T2 sequence (O02194 whole entry): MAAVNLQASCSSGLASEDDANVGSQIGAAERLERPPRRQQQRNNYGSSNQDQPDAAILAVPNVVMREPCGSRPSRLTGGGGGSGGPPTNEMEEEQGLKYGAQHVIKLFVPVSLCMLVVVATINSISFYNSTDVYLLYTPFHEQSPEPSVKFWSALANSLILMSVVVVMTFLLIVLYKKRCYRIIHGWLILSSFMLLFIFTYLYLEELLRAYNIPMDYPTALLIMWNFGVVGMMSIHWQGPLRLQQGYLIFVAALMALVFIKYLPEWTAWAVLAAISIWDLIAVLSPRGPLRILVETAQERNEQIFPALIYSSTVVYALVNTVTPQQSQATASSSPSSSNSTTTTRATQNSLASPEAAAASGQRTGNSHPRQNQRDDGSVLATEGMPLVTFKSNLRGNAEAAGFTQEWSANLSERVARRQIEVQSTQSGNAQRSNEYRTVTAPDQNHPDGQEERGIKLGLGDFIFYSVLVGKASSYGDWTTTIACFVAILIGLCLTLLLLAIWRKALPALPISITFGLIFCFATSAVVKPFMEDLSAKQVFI
T2 sequence (Q9VC27 23-695 partner): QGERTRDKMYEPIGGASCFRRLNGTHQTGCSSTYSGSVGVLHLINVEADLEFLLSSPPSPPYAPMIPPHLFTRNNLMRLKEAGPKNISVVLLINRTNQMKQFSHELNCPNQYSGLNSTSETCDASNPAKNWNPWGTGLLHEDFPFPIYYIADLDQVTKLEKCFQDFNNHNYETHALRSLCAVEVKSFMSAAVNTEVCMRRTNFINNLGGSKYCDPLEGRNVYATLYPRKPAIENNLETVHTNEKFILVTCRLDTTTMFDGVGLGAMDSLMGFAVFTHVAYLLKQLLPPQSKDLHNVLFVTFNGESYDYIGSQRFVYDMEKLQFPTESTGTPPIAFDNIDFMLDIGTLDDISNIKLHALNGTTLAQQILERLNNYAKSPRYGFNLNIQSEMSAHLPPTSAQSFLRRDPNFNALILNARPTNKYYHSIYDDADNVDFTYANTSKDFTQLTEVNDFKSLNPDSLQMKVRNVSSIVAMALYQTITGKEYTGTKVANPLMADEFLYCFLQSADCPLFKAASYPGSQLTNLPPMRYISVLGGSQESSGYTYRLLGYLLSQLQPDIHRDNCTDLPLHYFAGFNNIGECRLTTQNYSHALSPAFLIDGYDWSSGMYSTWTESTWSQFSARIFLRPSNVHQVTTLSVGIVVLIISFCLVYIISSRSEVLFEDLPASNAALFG
T2 sequence (Q9VQG2 whole entry partner): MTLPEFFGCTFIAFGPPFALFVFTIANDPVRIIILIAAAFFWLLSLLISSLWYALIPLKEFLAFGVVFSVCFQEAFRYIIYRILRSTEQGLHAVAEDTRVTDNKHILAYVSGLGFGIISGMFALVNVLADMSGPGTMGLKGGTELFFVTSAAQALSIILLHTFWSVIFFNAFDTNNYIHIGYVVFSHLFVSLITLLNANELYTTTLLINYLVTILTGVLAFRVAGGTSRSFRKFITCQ
T2 sequence (Q86BE9 whole entry partner): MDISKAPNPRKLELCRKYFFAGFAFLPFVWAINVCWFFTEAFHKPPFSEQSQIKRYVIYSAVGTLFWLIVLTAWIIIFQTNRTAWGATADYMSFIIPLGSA

With `COC(=O)[C@@H](NC(=O)[C@H](CC(C)C)NC(=O)N(Cc1ccccc1)C[C@@H](O)[C@H](Cc1ccccc1)NC(=O)OC(C)(C)C)C(C)C` [31C], the IC50 against human γ-secretase is 53.5 ± 13.6 nM; on drosophila γ-secretase (setting [5]), 0.933 ± 0.169 nM; on mouse γ-secretase, 20.7 ± 5.24 nM; on γ-secretase (Aβ) it was 300 nM. For the same molecule, the maximal inhibition on human γ-secretase is 103.1%.
Consider `C[C@H](NC(=O)Cc1cc(F)cc(F)c1)C(=O)N[C@H]1N=C(c2ccccc2)c2ccccc2N(C)C1=O` [Compound E], for which the half-maximal inhibitory concentration (IC50) against human γ-secretase was 53.9 ± 5.31 nM; against drosophila γ-secretase, 40.5 ± 7 nM; on γ-secretase [1], 7 nM; at γ-secretase (Aβ40, Aβ42) [2] (read-out: Reported IC50 (Aβ40)), 0.8 nM; on γ-secretase (Aβ40, Aβ42) [2] (read-out: Reported IC50 (Aβ42)) it was 7 nM; against mouse γ-secretase, 2.4 ± 0.605 nM. In addition, the concentration for half-maximal inhibition (IC50) is 0.24 nM at γ-secretase (Aβ40, Aβ42) [3] (read-out: Reported IC50 (Aβ40)) and 0.37 nM on γ-secretase (Aβ40, Aβ42) [3] (read-out: Reported IC50 (Aβ42)). The maximal inhibition at human γ-secretase is 92.3%.
As to `C[C@H](NC(=O)Cc1cc(F)cc(F)c1)C(=O)N[C@H](C(=O)OC(C)(C)C)c1ccccc1` [DAPT, N-[N-(3,5-difluorophenacetyl)-L-alanyl]-S-phenylglycine t-butyl ester], the IC50 was 3910 ± 551 nM against human γ-secretase; 1600 nM on γ-secretase (Aβ40, Aβ42) [2] (read-out: Reported IC50 (Aβ40)); 4000 nM at γ-secretase (Aβ40, Aβ42) [2] (read-out: Reported IC50 (Aβ42)). The maximal inhibition at human γ-secretase amounted to 69.7%.
On to `C[C@H](NC(=O)Cc1cc(F)cc(F)c1)C(=O)N[C@@H]1C(=O)N(C)c2ccccc2-c2ccccc21` [DBZ], for which the IC50 against human γ-secretase was 12.5 ± 5.76 nM; on drosophila γ-secretase (setting [5]), 6.97 ± 1.98 nM; in the assay with Sup-T1 NICT, 1.7 nM; against mouse γ-secretase it was 1.45 ± 0.435 nM. The maximal inhibition at human γ-secretase is reported as 95.2%.
Turning to `CC12CCC(C1)C(C)(C)C2NS(=O)(=O)c1ccc(F)cc1` (stereo not drawn) [Inhibitor VI], at human γ-secretase, inhibition was half-maximal at 44500 ± 25600 nM (IC50) and the maximal inhibition is listed as 67.3%. Further, the IC50 in the assay on Aβ1-42 is 1800 nM.
On to `CC(C)C[C@H](NC(=O)[C@H](Cc1ccccc1)C[C@@H](O)[C@H](Cc1ccccc1)NC(=O)OC(C)(C)C)C(=O)N[C@@H](Cc1ccccc1)C(N)=O` [L685,458], for which the IC50 at human γ-secretase is 4.43 ± 0.969 nM; at γ-secretase [4], 17 nM; at drosophila γ-secretase (setting [5]) it was 10.3 ± 1.66 nM; on γ-secretase [1], 3 nM; on mouse γ-secretase, 0.976 ± 0.147 nM; on γ-secretase (Aβ40, Aβ42) [3] (read-out: Reported IC50 (Aβ40)), 4 nM. Further, at γ-secretase (Aβ40, Aβ42) [3] (read-out: Reported IC50 (Aβ42)), the IC50 is 8 nM.

One may read the IC50 as the concentration at which inhibition is half-maximal.
